Data published in patent US8822435B2, “Bisphosphonate compounds” (Warner Chilcott Company, LLC, priority 2009, dated 2014).
Where “and” joins values, the source holds several entries; their conditions need not be identical. Equal values may be shown once.

Columns and labels:
[1] = Urinary recovery of cyclic acetal and conversion to bisphosphonate after IV administration to rats; assay type: in vivo, rat; settings: for dosed cyclic acetal converted to risedronate: male, Sprague-Dawley
Protocol: (§1) Male, Sprague-Dawley, rats weighing approximately 200-400 g were studied.
(§2) All formulations were prepared within approximately 1 hour of dosing.
Generally, animals were administered a 1.7 micromole/kg, 2 ml/kg IV dose (tail vein) of the appropriate formulation using a syringe and attached butterfly needle. All animals remained fasted for an additional 4 hours post dose and were returned to ad libitum access to food thereafter.
(§3) Urine samples were collected into refrigerated plastic conical tubes at approximately 4, 8 and 24 hours post-dose. At the end of each collection period, samples were weighed and transferred to a −70° C. freezer for storage until analyzed.
The absorbed risedronate is stable in vivo and is not metabolized. After IV administration of risedronate to rats, about 60% of risedronate binds to bone and about 40% of risedronate dosed is excreted in urine. When risedronate cyclic acetal compounds are administered intravenously to rats, a percentage of the cyclic acetal can remain intact and can be excreted in urine while a percentage of the cyclic acetal can be converted to risedronate in vivo. Assuming risedronate formed in vivo has the similar tissue distribution profile as described above, about 40% of risedronate generated in vivo will be excreted in urine and about 60% of risedronate generated in vivo will bind to bone. Thus, the percentage of the cyclic acetal which is converted to risedronate in vivo is estimated using Formula A: […]
Risedronate cyclic acetal compounds were administered intravenously in saline (0.9% sodium chloride).

[2] = Solubility in water (remark in synthesis example); assay type: physicochemical; settings: calcium salt
[3] = test system: Sprague Dawley rats (Schenk Model); test: Schenk Model: bone mineral density of proximal tibial metaphysis by DXA; assay type: in vivo, rat; settings: for D20, 20% > BMD than control / LED (lowest effective dose): SQ once daily for 7 days, rats; for D20, 20% > BMD than control: logistic dose response relationship; for LED (lowest effective dose): significant anti-resorptive dose vs control; for bone density in the rat proximal tibial metaphysis: Schenk Model
Protocol: The effect of the compounds (Example 62 (trans) and Example 128) on in vivo bone resorption inhibition and mineralization inhibition was evaluated in the Schenk Model, an animal model system known in the field of bone metabolism. The general principles of this model are disclosed in Shinoda et al., Calcif. Tissue Int., 35: 87-99 (1983); and in Schenk et al., Calcif: Tissue Res. 11: 196-214 (1973).
Male Sprague Dawley rats approximately 6 weeks old with weights ranging between 120 and 150 grams were placed into groups based on body weight, with 4-8 animals per group. All groups received treatment by subcutaneous injection (SQ) once daily for 7 days.
On day 7 after the start of dosing, all animals were euthanized via exsanguination under gas anesthesia and/or CO2. The right tibia and femur were dissected free and placed in 70% ethyl alcohol.
The proximal metaphysis of the right tibia was analyzed using dual energy x-ray absorptiometry (DXA). This provides information on changes in both cortical and cancellous bone density. The primary end-point for this study was bone mineral density (BMD) in the tibia measured using Hologics QDR-4500 densitometer (Hologics, Inc). Statistical evaluation of data was made using parametric and non-parametric analysis of variance and Fisher's protected t-test to determine a statistically significant effect compared to control animals, defined as the lowest effective (significant anti-resorptive) dose (LED).
The dose which increased (BMD) 20% compared to the vehicle group (D20) was calculated via a logistic dose response relationship, which estimates an efficacy value using all animals in the study (Lundy et al., J. Bone Min. Res. 22 (Suppl. 1): S443, (2007)).

[4] = Urinary recovery / risedronate exposure after intraduodenal (ID) and oral (PO) administration to fasted and fed rats; assay type: in vivo, rat; settings: for Amount Excreted: Risedronate (risedronate administered): dose 17 micromole/kg, rats
Protocol: as §1, §2
The appropriate test article formulation was administered to each animal as a 17 micromole/kg, 2 mL/kg dose solution in 0.6% methylcellulose/0.2% Tween 80® by oral gavage. Alternatively, animals were dosed with a 17 micromole/kg, 1 mL/kg dose solution in saline through a cannula into the duodenum. Animals in the fasted groups were fasted for approximately 4 hours after dosing and were returned to ad libitum access to food thereafter. Animals in the fed groups had access to food ad libitum for at least 2 hours prior to dosing, and throughout the day post dose.
as §3
Example 62 (trans) and risedronate were administered via intraduodenal (ID) and oral administration to fasted and fed rats. Similar to the procedure described above in relation to the IV study, the urine of the rats was collected, and risedronate was recovered from urine. Risedronate exposure following ID and oral administration was calculated as percentage of the recovered risedronate from the dosed cyclic acetal (Formula A), and the results were compared to that from dosing with risedronate, See Table 4.

[5] = IV, dose 1.7 micromole/kg, rats, % CV in parentheses
[6] = after IV administration of risedronate to rats

## CC(=O)Oc1ccc(C2OP(=O)(O)C(O)(Cc3cccnc3)P(=O)(O)O2)cc1 (centres unmarked) [Example 28]
[1]; rat, in vivo, iv
  urinary recovery of the cyclic acetal: very low

## CCCC(=O)Oc1ccc(C2OP(=O)(O)C(O)(Cc3cccnc3)P(=O)(O)O2)cc1 (centres unmarked) [Example 29]
[1]; rat, in vivo, iv
  dosed cyclic acetal converted to risedronate: > 100%
  urinary recovery of the cyclic acetal: very low

## CCCC(=O)Oc1ccc(C2OP(=O)(O)C(O)(Cc3cccnc3)P(=O)(O)O2)cc1F (centres unmarked) [Example 30]
[1]; rat, in vivo, iv
  urinary recovery of the cyclic acetal: very low

## CC(C)C(=O)Oc1ccc(C2OP(=O)(O)C(O)(Cc3cccnc3)P(=O)(O)O2)cc1 (stereo not drawn) [Example 33 (trans)]
[1]; rat, in vivo, iv
  urinary recovery of the cyclic acetal: very low

## CCOC(=O)Oc1ccc(C2OP(=O)(O)C(O)(Cc3cccnc3)P(=O)(O)O2)cc1 (centres unmarked) [Example 36]
[1]; rat, in vivo, iv
  systemic exposure of cyclic acetal and risedronate: both systemic exposure of the cyclic acetal and risedronate

## CC(C)=CC(=O)Oc1ccc(C2OP(=O)(O)C(O)(Cc3cccnc3)P(=O)(O)O2)cc1F (centres unmarked) [Example 47]
[1]; rat, in vivo, iv
  urinary recovery of the cyclic acetal: very low

## COC(=O)Oc1ccccc1C1OP(=O)(O)C(O)(Cc2cccnc2)P(=O)(O)O1 (stereo not drawn) [Example 50 (trans)]
[1]; rat, in vivo, iv
  systemic exposure of cyclic acetal and risedronate: both systemic exposure of the cyclic acetal and risedronate

## O=C(Oc1c(F)cccc1C1OP(=O)(O)C(O)(Cc2cccnc2)P(=O)(O)O1)N1CCOCC1 (centres unmarked) [Example 53]
[2]
  solubility in water: very low

## CC(C)OC(=O)Oc1ccccc1C1OP(=O)(O)C(O)(Cc2cccnc2)P(=O)(O)O1 (stereo not drawn) [Example 62 (trans)]
[3]
  D20, 20% > BMD than control: 5 mcg P/kg
  LED (lowest effective dose): 3 mcg P/kg
  bone density in the rat proximal tibial metaphysis: efficacious
[1]; rat, in vivo, iv
  risedronate release rate into the bloodstream vs risedronate: slower
  systemic exposure of cyclic acetal and risedronate: both systemic exposure of the cyclic acetal and risedronate

## CC(C)OC(=O)Oc1ccc(C2OP(=O)(O)C(O)(Cc3cccnc3)P(=O)(O)O2)c(F)c1 (centres unmarked) [Example 63]
[1]; rat, in vivo, iv
  urinary recovery of the cyclic acetal: very low

## O=C(Cc1ccccc1)Oc1ccc(C2OP(=O)(O)C(O)(Cc3cccnc3)P(=O)(O)O2)cc1 (stereo not drawn) [Example 79 (trans)]
[1]; [5]
  Amount of Cyclic Acetal Excreted: 0.3 (220) % of administered dose excreted in urine

## O=C(Cc1ccccc1)Oc1ccc(C2OP(=O)(O)C(O)(Cc3cccnc3)P(=O)(O)O2)cc1 (centres unmarked) [Example 79]
[1]; IV, rats, rapid rate of conversion to risedronate in vivo
  urinary recovery of the cyclic acetal: very low

## O=C1OCCN1C(=O)Oc1ccccc1C1OP(=O)(O)C(O)(Cc2cccnc2)P(=O)(O)O1 (centres unmarked) [Example 82]
[1]; rat, in vivo, iv
  dosed cyclic acetal converted to risedronate: 43%

## CC1(C)CN(C(=O)Oc2cc(F)c(C3OP(=O)(O)C(O)(Cc4cccnc4)P(=O)(O)O3)c(F)c2)C(=O)O1 (centres unmarked) [Example 83]
[1]; rat, in vivo, iv
  urinary recovery of the cyclic acetal: very low

## CCCC(=O)Oc1ccccc1C1OP(=O)(O)C(O)(Cc2cccnc2)P(=O)(O)O1 (centres unmarked) [Example 105]
[1]; rat, in vivo, iv
  urinary recovery of the cyclic acetal: very low

## CC(C)OC(=O)Oc1ccccc1C1OP(=O)(O)C(O)(Cn2ccnc2)P(=O)(O)O1 (centres unmarked) [Example 128, Carbonic acid isopropyl ester 2-(2,3,4-trihydroxy-3-imidazol-1-ylmethyl-2,4-dioxo-2λ^5,4λ^5-[1,5,2,4]dioxadiphosphinan-6-yl)-phenyl ester]
[3]
  D20, 20% > BMD than control: 0.5 mcg P/kg
  LED (lowest effective dose): 1 mcg P/kg
  bone density in the rat proximal tibial metaphysis: efficacious

## O=P(O)(O)C(O)(Cc1cccnc1)P(=O)(O)O [Risedronate, risedronate, reference compound]
[3]
  D20, 20% > BMD than control: 1.8 mcg P/kg
  LED (lowest effective dose): 1 mcg P/kg
[4]; ID fed, % CV in parentheses
  Amount Excreted: Risedronate (risedronate administered): 0.012 (50) % of administered dose excreted in urine
[4]; Oral fast
  Amount Excreted: Risedronate (risedronate administered): 0.13 % of administered dose excreted in urine
[4]; Oral fed
  Amount Excreted: Risedronate (risedronate administered): 0.003 % of administered dose excreted in urine
[4]; fed rats
  risedronate exposure with food compared to fasted rats: extensive reduction
[4]; orally to fasted rats
  risedronate exposure as estimated by urinary recovery: less than 1 % of dose
[1]; [5]
  Amount Excreted: Risedronate (risedronate administered): 36 (13) % of administered dose excreted in urine and 39 % of administered dose excreted in urine
[1]; [6]
  risedronate binds to bone: about 60%
  risedronate dosed excreted in urine: about 40%

## O=P(O)(O)C(O)(Cn1ccnc1)P(=O)(O)O [Zoledronic acid, (1-hydroxy-2-imidazol-1-yl)-ethyl-1,1-bisphosphonic acid, reference compound]
[3]
  D20, 20% > BMD than control: 0.1 mcg P/kg
  LED (lowest effective dose): 0.1 mcg P/kg
